Reference: ChEMBL document CHEMBL1909046, “DrugMatrix in vitro pharmacology data”

What was measured:
[1] = DRUGMATRIX: Calcium Channel Type L, Dihydropyridine radioligand binding (ligand: [3H] Nitrendipine); assay type: cell membranes, Rattus norvegicus, Wistar, Cerebral cortex, Membrane; conditions: Not Active = under 50% inhibition at 10 µM
[2] = biological target: T1, Thromboxane-A synthase (Homo sapiens, UniProt P24557); experiment: biochemical; assay type: tissue-based, Platelet;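 note: enzyme inhibition assay with PGH2 supplied as substrate; in other assays of this panel Not Active means under 50% inhibition at 10 µM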
T1 sequence (P24557 whole entry): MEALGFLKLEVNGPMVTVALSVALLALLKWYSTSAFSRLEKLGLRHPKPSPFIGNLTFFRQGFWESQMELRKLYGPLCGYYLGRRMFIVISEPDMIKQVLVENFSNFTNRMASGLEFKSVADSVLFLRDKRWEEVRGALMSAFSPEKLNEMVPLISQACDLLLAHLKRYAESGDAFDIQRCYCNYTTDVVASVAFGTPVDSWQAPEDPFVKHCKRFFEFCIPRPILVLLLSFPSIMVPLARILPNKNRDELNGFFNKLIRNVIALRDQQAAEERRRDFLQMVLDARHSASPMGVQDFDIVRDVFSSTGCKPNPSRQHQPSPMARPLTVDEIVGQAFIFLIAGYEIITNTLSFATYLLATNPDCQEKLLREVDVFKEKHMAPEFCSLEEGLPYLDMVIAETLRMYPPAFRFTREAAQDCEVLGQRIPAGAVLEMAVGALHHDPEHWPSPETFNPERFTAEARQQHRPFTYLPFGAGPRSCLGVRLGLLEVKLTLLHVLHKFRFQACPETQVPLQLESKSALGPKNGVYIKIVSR

[3] = DRUGMATRIX: Tumor Necrosis Factor (TNF), Non-Selective radioligand binding (ligand: [125I] TNF-alpha); assay type: cell membranes, Membrane; conditions: u-937; Not Active = under 50% inhibition at 10 µM
[4] = DRUGMATRIX: Calcium Channel Type L, Phenylalkylamine radioligand binding (ligand: [3H] (-)-Desmethoxyverapamil (D-888)); assay type: cell membranes, Rattus norvegicus, Wistar, Brain, Membrane; conditions: Not Active = under 50% inhibition at 10 µM
[5] = biological target: T2, C-X-C chemokine receptor type 2 (Homo sapiens, UniProt P25025); assay type: cell membranes, CHO-K1, Membrane; conditions: cho-k1; note: in other assays of this panel Not Active means under 50% inhibition at 10 µM
T2 sequence (P25025 whole entry): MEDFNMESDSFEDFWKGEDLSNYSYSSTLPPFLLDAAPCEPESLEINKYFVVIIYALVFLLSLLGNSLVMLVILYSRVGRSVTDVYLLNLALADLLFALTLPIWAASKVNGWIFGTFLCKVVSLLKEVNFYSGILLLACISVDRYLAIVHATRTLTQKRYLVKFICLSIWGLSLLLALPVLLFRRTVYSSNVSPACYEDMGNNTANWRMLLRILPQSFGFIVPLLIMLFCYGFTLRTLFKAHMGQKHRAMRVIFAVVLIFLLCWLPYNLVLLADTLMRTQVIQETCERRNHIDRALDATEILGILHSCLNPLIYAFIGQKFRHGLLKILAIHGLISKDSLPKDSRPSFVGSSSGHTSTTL

[6] = biological target: Kappa-type opioid receptor (Homo sapiens, UniProt P41145); experiment: DRUGMATRIX: Opiate kappa (OP2, KOP) radioligand binding (ligand: [3H] Diprenorphine); assay type: cell membranes, HEK293, Membrane; conditions: Not Active = under 50% inhibition at 10 µM
[7] = biological target: T3, 5-hydroxytryptamine receptor 1A (Rattus norvegicus, UniProt P19327); assay type: cell membranes, CHO-K1, Membrane; conditions: for Ki: read-out: Ki; for all read-outs here: in other assays of this panel Not Active means under 50% inhibition at 10 µM
T3 sequence (P19327 whole entry): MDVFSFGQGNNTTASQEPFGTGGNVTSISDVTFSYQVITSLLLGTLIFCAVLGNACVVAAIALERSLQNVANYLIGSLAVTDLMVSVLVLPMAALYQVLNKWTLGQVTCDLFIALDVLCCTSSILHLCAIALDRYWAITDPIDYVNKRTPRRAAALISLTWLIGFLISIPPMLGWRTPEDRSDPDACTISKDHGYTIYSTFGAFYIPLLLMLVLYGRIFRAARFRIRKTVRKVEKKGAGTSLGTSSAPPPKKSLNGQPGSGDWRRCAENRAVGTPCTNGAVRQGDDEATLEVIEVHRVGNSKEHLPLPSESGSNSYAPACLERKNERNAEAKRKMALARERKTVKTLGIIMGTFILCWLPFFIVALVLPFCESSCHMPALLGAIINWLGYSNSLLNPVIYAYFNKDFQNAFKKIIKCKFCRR

Chain of Kappa-type opioid receptor (P41145 whole entry): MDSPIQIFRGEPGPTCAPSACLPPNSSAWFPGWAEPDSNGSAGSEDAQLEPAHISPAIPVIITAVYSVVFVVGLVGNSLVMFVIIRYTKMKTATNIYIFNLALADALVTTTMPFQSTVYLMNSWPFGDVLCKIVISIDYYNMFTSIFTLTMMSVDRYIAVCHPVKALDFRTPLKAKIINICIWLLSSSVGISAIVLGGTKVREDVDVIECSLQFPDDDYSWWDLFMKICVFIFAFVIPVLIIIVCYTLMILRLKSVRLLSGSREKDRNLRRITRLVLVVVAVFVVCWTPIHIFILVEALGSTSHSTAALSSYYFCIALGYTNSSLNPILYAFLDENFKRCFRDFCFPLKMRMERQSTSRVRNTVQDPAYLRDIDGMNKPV

Structure (SMILES)	IC50 [1]	Ki [1]	IC50 ([2]; platelet)	IC50 [3]	Ki [3]	IC50 [4]	Ki [4]	IC50 [5]	IC50 ([6]; hek293)	IC50 ([7]; cho-k1)	IC50 ([4]; read-out: IC50) [nM]	Ki ([4]; read-out: Ki) [nM]	IC50 ([7]; read-out: IC50) [nM]	Ki [7] [nM]	Ki [6] [nM]	IC50 ([6]; read-out: IC50) [nM]	IC50 ([2]; read-out: IC50) [nM]
CC(C)NCC(O)COc1ccc(CC(N)=O)cc1 (centres undefined) [ATENOLOL]	Not Active	Not Active	Not Active	Not Active	Not Active	Not Active	Not Active	Not Active	Not Active	Not Active	–	–	–	–	–	–	–
CNC[C@H](O)c1ccc(O)c(O)c1 [EPINEPHRINE]	Not Active	Not Active	Not Active	Not Active	Not Active	Not Active	Not Active	Not Active	Not Active	Not Active	–	–	–	–	–	–	–
CN(Cc1cc(Br)cc(Br)c1N)C1CCCCC1 [BROMHEXINE]	Not Active	Not Active	Not Active	Not Active	Not Active	Not Active	Not Active	Not Active	Not Active	Not Active	–	–	–	–	–	–	–
CC(C)Cc1ccc([C@H](C)C(=O)O)cc1 [DEXIBUPROFEN]	Not Active	Not Active	Not Active	Not Active	Not Active	Not Active	Not Active	Not Active	Not Active	Not Active	–	–	–	–	–	–	–
CC(C)Cn1cnc2c(N)nc3ccccc3c21 [IMIQUIMOD]	Not Active	Not Active	Not Active	Not Active	Not Active	Not Active	Not Active	Not Active	Not Active	Not Active	–	–	–	–	–	–	–
CC(C)(C#N)c1cc(Cn2cncn2)cc(C(C)(C)C#N)c1 [ANASTROZOLE]	Not Active	Not Active	Not Active	Not Active	Not Active	Not Active	Not Active	Not Active	Not Active	Not Active	–	–	–	–	–	–	–
COc1ccccc1OCCNCC(O)COc1cccc2[nH]c3ccccc3c12 (centres undefined) [CARVEDILOL]	Not Active	Not Active	Not Active	Not Active	Not Active	–	–	Not Active	Not Active	–	389	378	5.84	3.34	–	–	–
c1ccc2sc(SSc3nc4ccccc4s3)nc2c1 [BENZOTHIAZYL DISULFIDE]	Not Active	Not Active	Not Active	Not Active	Not Active	Not Active	Not Active	Not Active	–	–	–	–	747	427	497	1240	–
O=C1c2ccccc2C(=O)C1c1ccccc1 [PHENINDIONE]	Not Active	Not Active	Not Active	Not Active	Not Active	Not Active	Not Active	Not Active	Not Active	Not Active	–	–	–	–	–	–	–
Nc1ccc(C(=O)O)c(O)c1 [AMINOSALICYLIC ACID]	Not Active	Not Active	Not Active	Not Active	Not Active	Not Active	Not Active	Not Active	Not Active	Not Active	–	–	–	–	–	–	–
OC[C@H]1O[C@@H]2O[C@H]3[C@H](O)[C@@H](O)[C@@H](O[C@H]4[C@H](O)[C@@H](O)[C@@H](O[C@H]5[C@H](O)[C@@H](O)[C@@H](O[C@H]6[C@H](O)[C@@H](O)[C@@H](O[C@H]7[C@H](O)[C@@H](O)[C@@H](O[C@H]1[C@H](O)[C@H]2O)O[C@@H]7CO)O[C@@H]6CO)O[C@@H]5CO)O[C@@H]4CO)O[C@@H]3CO [ALFADEX]	Not Active	Not Active	Not Active	Not Active	Not Active	Not Active	Not Active	Not Active	Not Active	Not Active	–	–	–	–	–	–	–
COC(=O)C[C@](O)(CCC(C)(C)O)C(=O)O[C@@H]1C(OC)=C[C@]23CCCN2CCc2cc4c(cc2[C@H]13)OCO4 [HARRINGTONINE]	Not Active	Not Active	Not Active	Not Active	Not Active	Not Active	Not Active	Not Active	Not Active	Not Active	–	–	–	–	–	–	–
O=C1CN(/N=C/c2ccc([N+](=O)[O-])o2)C(=O)N1 [NITROFURANTOIN]	Not Active	Not Active	Not Active	Not Active	Not Active	Not Active	Not Active	Not Active	Not Active	Not Active	–	–	–	–	–	–	–
C[N+](C)(C)CCOC(N)=O.[Cl-] [CARBACHOL]	Not Active	Not Active	Not Active	Not Active	Not Active	Not Active	Not Active	Not Active	Not Active	Not Active	–	–	–	–	–	–	–
O=C(NCCN1CCOCC1)c1ccc(Cl)cc1 [MOCLOBEMIDE]	Not Active	Not Active	Not Active	Not Active	Not Active	Not Active	Not Active	Not Active	Not Active	Not Active	–	–	–	–	–	–	–
CC12CCC(CC1)C(C)(C)O2 [EUCALYPTOL]	Not Active	Not Active	Not Active	Not Active	Not Active	Not Active	Not Active	Not Active	Not Active	Not Active	–	–	–	–	–	–	–
CC(N)Cc1c[nH]c2ccc(OCc3cccs3)cc12 (centres undefined) [BW-723C86]	Not Active	Not Active	Not Active	Not Active	Not Active	–	–	Not Active	Not Active	–	4340	4220	1130	644	–	–	–
OC[C@H]1OC2C3[C@@H](CO)OC(O[C@H]4[C@H](O)[C@@H](O)[C@@H](O[C@H]5[C@H](O)[C@@H](O)[C@@H](O[C@H]6[C@H](O)[C@@H](O)[C@@H](O[C@H]7[C@H](O)[C@@H](O)[C@@H](O[C@H]8[C@H](O)[C@@H](O)[C@@H](O[C@H]9[C@H](O)[C@@H](O)C(OC1[C@H](O)[C@H]2O)O[C@@H]9CO)O[C@@H]8CO)O[C@@H]7CO)O[C@@H]6CO)O[C@@H]5CO)O[C@@H]4CO)[C@H](O)[C@H]3O	Not Active	Not Active	Not Active	Not Active	Not Active	Not Active	Not Active	Not Active	Not Active	Not Active	–	–	–	–	–	–	–
CN(CCOc1ccc(C[C@H](Nc2ccccc2C(=O)c2ccccc2)C(=O)O)cc1)c1ccccn1	Not Active	Not Active	–	Not Active	Not Active	Not Active	Not Active	Not Active	Not Active	Not Active	–	–	–	–	–	–	2950
CCN1CCN(c2cc3c(cc2F)c(=O)c(C(=O)O)cn3C2CC2)CC1 [ENROFLOXACIN]	Not Active	Not Active	Not Active	Not Active	Not Active	Not Active	Not Active	Not Active	Not Active	Not Active	–	–	–	–	–	–	–
